# “And” between values parts separate entries of the source, which are not always exact repeats. Equal entries are not always repeated.
# Assays:
# Assay type in all cases: physicochemical
# [1] = Stock solution stability at approximately 4° C. (old vs new stock peak areas); conditions: for Stock solution stability, RE % (to New) of old stock peak area: approximately 4° C.
# Experimental: The following LC-MS/MS conditions were applied for the analysis of underivatized sodium 2,2-dimethylbutyrate and DMV for stock solution stability analysis (2 to 3.5 month), and system suitability associated with these analyses: The following samples were also analyzed either in conjunction with one of the precision and accuracy runs or in one of the additional validation runs. Samples from six lots of control human plasma for specificity. Samples from six lots of control human plasma fortified with internal standard for specificity. Two concentration levels of unextracted QC-samples in triplicate (solvent standards) were analyzed for the evaluation of the recovery of sodium 2,2-dimethylbutyrate and DMV in human plasma. Two levels of QC samples (Low QC and High QC in triplicate) were subjected to three freeze/thaw cycles at approximately −70° C. prior to extraction to evaluate freeze/thaw stability. Two levels of QC samples (Low QC and High QC in triplicate) were placed on the bench top for approximately 17 hours prior to extraction for the evaluation of the bench top stability. Triplicate low QC samples and triplicate high QC samples were stored for one month and three months in a freezer at approximately −70° C., and then extracted and analyzed to evaluate long term stability in human plasma. Two levels of extracted QC samples (Low QC and High QC) were re-analyzed after approximately 71 hours in the autosampler at room temperature to evaluate the extract autosampler stability. Two levels of extracted QC samples (Low QC and High QC) were re-analyzed after approximately 8 hours in the freezer at approximately −20° C. to evaluate the extract freeze stability. Three aliquots of a dilution QC sample diluted 10-fold. Triplicate dilutions of the old stock solution (stored at approximately 4° C.) and new stock solutions prepared at intervals of two weeks and one month. Statistical calculations in the report tables were calculated from unrounded concentration values taken directly from the raw data. The concentration values were rounded for display purposes. Fresh stock solutions of sodium 2,2-dimethylbutyrate were prepared at intervals of two weeks and 1, 2, 3 and 3.5 months after the initial standard preparation. Similarly, the stability intervals for DMV were two weeks and 1, 2 and 3 months. The initial (or old) stock solutions and the fresh stock solutions were diluted into the calibration standard range and analyzed. The peak areas for the fresh (new) and old standard solutions were compared. Beginning with the 2-month stability analysis, sodium 2,2-dimethylbutyrate and DMV stock solutions were analyzed underivatized. This was done since the peak areas of both sodium 2,2-dimethylbutyrate and DMV varied among replicate derivatized preparations. Analyzing the standard solutions underivatized was a simpler procedure which gave more accurate and precise results
# [2] = Freeze/thaw cycle stability in dog plasma; conditions: three freeze/thaw cycles at approximately −70° C.
# Experimental: (§1) For the remaining validation tests, a calibration curve and triplicates QCs at the low, mid and high levels were analyzed with each sample set. The following samples were also analyzed either in conjunction with one of the precision and accuracy runs or in one of the additional validation runs: Samples from six lots of control dog plasma for specificity. Two concentration levels of unextracted QC-samples in triplicate (solvent standards) were analyzed for the evaluation of the recovery of sodium 2,2-dimethylbutyrate and DMV in dog plasma. Two levels of QC samples (Low QC and High QC in triplicate) were subjected to three freeze/thaw cycles at approximately −70° C. prior to extraction to evaluate freeze/thaw stability. Two levels of QC samples (Low QC and High QC in triplicate) were placed on the bench top for approximately 17 hours prior to extraction for the evaluation of the bench top stability. Triplicate low QC samples and triplicate high QC samples were stored for one month and three months in a freezer at approximately −70° C., and then extracted and analyzed to evaluate long term stability in dog plasma. Three aliquots of a dilution QC sample diluted 10-fold.
# (§2) The stability of sodium 2,2-dimethylbutyrate in dog plasma was evaluated at approximately −70° C. for three cycles using QC-Low and QC-High samples in triplicate. The freeze time was at least 12 hours, with a minimum thaw time of one hour. The CV % values for the QC-Low and QC-High stability samples are 1.4% and 2.8%, respectively. To calculate the RE %, the measured mean concentration was compared to the nominal concentration. The RE % values for the QC-Low and QC-High stability samples are 1.9% and −8.1%, respectively.
# [3] = Freeze/thaw cycle stability in rat plasma; conditions: three freeze/thaw cycles at approximately −70° C.
# Experimental: as §1, with “rat” for “dog”, “specificity; Samples from six lots of control rat plasma fortified with internal standard for specificity;” for “specificity.”, “rat plasma;” for “dog plasma.”, “stability;” for “stability.”
# as §2, with “rat” for “dog”, “12-24” for “12”, “13.3%” for “1.4%”, “4.6%,” for “2.8%,”, “concentration.” for “concentration. The RE % values for the QC-Low and QC-High stability samples are 1.9% and −8.1%, respectively.”
smiles,measurement,setting,value
"CCC(C)(C)C(=O)[O-].[Na+] [Sodium 2,2-Dimethylbutyrate]","Stock solution stability, RE % (to New) of old stock peak area",[1]; 1 Month Interval,10.3%
same,"Stock solution stability, RE % (to New) of old stock peak area","[1]; 2 Month Interval, underivatized",2.2%
same,"Stock solution stability, RE % (to New) of old stock peak area",[1]; 2 Week Interval,−8.6%
same,"Stock solution stability, RE % (to New) of old stock peak area","[1]; 3 Month Interval, underivatized",1.6%
same,"Stock solution stability, RE % (to New) of old stock peak area","[1]; ~3.5 Month Interval, underivatized",−2.2%
same,Time stock solutions are stable,[1]; stock solution in acetonitrile/water stored in a refrigerator at approximately 4° C.,at least 3.5 months
same,Stability after freeze/thaw cycles,[2],stable
same,"Freeze/thaw cycle stability, Mean concentration","[2]; QC-High, nominal 40.0 μg/mL",36.8 µg/mL
same,"Freeze/thaw cycle stability, RE % (mean vs nominal)","[2]; QC-High, nominal 40.0 μg/mL",−8.1%
same,"Freeze/thaw cycle stability, concentration found (replicate)","[2]; QC-High, nominal 40.0 μg/mL",36.2 μg/mL (2×) and 37.9 μg/mL
same,"Freeze/thaw cycle stability, Mean concentration","[2]; QC-Low, nominal 0.60 μg/mL",0.612 µg/mL
same,"Freeze/thaw cycle stability, RE % (mean vs nominal)","[2]; QC-Low, nominal 0.60 μg/mL",1.9%
same,"Freeze/thaw cycle stability, concentration found (replicate)","[2]; QC-Low, nominal 0.60 μg/mL",0.603 µg/mL and 0.620 µg/mL and 0.612 µg/mL
same,Stability after freeze/thaw cycles,[3],stable
same,"Freeze/thaw cycle stability, Mean concentration","[3]; QC-High, nominal 40.0 μg/mL",41.2 µg/mL
same,"Freeze/thaw cycle stability, RE % (mean vs nominal)","[3]; QC-High, nominal 40.0 μg/mL",3.1%
same,"Freeze/thaw cycle stability, concentration found (replicate)","[3]; QC-High, nominal 40.0 μg/mL",41.7 µg/mL and 39.2 µg/mL and 42.9 µg/mL
same,"Freeze/thaw cycle stability, Mean concentration","[3]; QC-Low, nominal 0.60 μg/mL",0.575 µg/mL
same,"Freeze/thaw cycle stability, RE % (mean vs nominal)","[3]; QC-Low, nominal 0.60 μg/mL",−4.1%
same,"Freeze/thaw cycle stability, concentration found (replicate)","[3]; QC-Low, nominal 0.60 μg/mL",0.491 µg/mL and 0.595 µg/mL and 0.640 µg/mL
